26 compounds from patent publication US11414413B2, “Heterocyclic compound as JAK inhibitor, and salts and therapeutic use thereof” (Suzhou Longbiotech Pharmaceuticals Co., Ltd., priority 2016, dated 2022) can be followed below.

Each structure is given as a SMILES string.

Holding throughout (assay type): biochemical
In one test the target is JAK2 (Homo sapiens (Human), UniProt O60674). Briefly: Inhibition of JAK2, luminescence kinase assay (ADP-Glo). The following applies: purified recombinant JAK2. Here is the method:
(§1) The study of the effect of compounds on the activity of purified recombinant JAK was performed by studying the inhibitory activity of the compounds on JAK from the enzymatic level. The experimental principle is to use a luminescence kinase assay to detect the ADP content produced by the reaction of JAK with the substrate Poly (4:1 Glu, Tyr) peptide: after ADP is converted to ATP, ATP can act as a substrate for the Ultra-Glo luciferase catalytic reaction, producing an optical signal. The luminescence signal is positively correlated with the amount of ADP and kinase activity. Therefore, the inhibitory effect of the compounds on the recombinant JAK was determined by observing the luminescence signal produced by the reaction of JAK and the substrate, and was expressed by IC50.
(§2) Experimental method: 10 different concentrations of compounds were incubated with JAK1, JAK2 and JAK3, respectively, for 60 minutes at 37° C. The substrate and ATP were then added, mixed, and reacted at 37° C. for 50 minutes. 25 μl of ADP-Glo™ was added and mixed for 2 minutes. The reaction was carried out for 50 minutes at room temperature. Further, 50 μl of the detection reagent was added and mixed for 2 minutes, and incubated at room temperature for 50 minutes, and detected by a chemiluminometer.
(In ADP-Glo the light output rises with the ADP produced.)

A further test deals with JAK3 (Homo sapiens (Human), UniProt P52333). The experiment in a line: Inhibition of JAK3, luminescence kinase assay (ADP-Glo). As to conditions: purified recombinant JAK3. Here is the method:
as §1, §2

For another test, the target named is JAK1 (Homo sapiens (Human), UniProt P23458). Briefly: Inhibition of JAK1, luminescence kinase assay (ADP-Glo). The following applies: purified recombinant JAK1. Here is the method:
as §1, §2

A word on the IC50: it is the point on the concentration scale where inhibition reaches its midpoint.

Chain of JAK2 (O60674 whole entry): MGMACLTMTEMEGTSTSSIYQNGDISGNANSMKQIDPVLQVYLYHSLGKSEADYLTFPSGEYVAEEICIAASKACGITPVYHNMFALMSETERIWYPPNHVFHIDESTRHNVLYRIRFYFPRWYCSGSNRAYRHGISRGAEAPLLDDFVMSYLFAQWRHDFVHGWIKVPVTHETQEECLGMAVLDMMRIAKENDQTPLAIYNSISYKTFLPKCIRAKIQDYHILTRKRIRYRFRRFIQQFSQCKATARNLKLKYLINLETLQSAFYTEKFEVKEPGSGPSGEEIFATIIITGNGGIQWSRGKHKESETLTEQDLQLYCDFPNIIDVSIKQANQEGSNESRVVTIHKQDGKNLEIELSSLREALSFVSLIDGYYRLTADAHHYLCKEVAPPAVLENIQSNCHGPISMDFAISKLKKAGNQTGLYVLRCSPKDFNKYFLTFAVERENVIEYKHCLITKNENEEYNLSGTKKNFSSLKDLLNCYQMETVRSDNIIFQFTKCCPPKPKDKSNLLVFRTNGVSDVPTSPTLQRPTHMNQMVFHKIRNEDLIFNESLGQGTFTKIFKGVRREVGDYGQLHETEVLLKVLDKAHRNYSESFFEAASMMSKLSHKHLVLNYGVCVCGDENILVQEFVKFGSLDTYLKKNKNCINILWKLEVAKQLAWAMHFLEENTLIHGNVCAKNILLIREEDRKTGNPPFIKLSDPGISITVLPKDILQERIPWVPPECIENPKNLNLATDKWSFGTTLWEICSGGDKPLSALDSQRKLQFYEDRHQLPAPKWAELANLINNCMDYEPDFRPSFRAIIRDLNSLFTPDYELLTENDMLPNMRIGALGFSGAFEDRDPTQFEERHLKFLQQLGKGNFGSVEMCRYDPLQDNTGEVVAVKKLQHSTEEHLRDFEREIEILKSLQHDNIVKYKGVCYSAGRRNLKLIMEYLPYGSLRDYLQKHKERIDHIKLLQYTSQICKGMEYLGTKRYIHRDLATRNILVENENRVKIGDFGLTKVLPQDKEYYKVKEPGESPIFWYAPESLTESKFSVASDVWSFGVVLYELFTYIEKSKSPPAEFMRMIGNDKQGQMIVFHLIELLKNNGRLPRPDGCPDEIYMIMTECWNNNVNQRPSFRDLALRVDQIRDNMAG
Chain of JAK1 (P23458 whole entry): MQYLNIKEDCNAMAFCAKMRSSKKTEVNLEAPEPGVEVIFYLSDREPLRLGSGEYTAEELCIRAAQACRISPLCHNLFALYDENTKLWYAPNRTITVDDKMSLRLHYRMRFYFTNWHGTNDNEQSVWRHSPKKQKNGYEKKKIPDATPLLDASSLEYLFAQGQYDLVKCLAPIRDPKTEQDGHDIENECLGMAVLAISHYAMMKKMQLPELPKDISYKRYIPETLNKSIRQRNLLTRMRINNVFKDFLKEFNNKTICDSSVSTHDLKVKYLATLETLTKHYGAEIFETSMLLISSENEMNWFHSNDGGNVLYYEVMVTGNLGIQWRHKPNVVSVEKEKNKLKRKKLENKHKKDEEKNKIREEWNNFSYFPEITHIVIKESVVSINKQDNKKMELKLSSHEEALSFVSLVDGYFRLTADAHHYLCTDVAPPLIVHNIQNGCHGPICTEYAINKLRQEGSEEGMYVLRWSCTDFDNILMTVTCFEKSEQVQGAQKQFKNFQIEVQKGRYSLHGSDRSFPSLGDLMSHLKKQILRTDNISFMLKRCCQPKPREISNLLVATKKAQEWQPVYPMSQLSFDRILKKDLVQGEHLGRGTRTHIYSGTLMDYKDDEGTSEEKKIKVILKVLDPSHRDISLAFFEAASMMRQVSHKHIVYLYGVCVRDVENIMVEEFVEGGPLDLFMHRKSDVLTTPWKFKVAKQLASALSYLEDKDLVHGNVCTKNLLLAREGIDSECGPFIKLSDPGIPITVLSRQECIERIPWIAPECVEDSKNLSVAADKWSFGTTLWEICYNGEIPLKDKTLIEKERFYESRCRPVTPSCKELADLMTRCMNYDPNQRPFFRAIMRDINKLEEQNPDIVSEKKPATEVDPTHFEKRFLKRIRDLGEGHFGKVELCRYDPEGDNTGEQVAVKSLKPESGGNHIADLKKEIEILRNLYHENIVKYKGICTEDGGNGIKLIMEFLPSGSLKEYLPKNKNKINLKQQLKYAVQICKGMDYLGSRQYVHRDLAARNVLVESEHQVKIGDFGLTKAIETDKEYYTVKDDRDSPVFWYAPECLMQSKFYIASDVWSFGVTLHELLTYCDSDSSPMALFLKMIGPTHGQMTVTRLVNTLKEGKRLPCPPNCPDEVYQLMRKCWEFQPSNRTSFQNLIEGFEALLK
Chain of JAK3 (P52333 whole entry): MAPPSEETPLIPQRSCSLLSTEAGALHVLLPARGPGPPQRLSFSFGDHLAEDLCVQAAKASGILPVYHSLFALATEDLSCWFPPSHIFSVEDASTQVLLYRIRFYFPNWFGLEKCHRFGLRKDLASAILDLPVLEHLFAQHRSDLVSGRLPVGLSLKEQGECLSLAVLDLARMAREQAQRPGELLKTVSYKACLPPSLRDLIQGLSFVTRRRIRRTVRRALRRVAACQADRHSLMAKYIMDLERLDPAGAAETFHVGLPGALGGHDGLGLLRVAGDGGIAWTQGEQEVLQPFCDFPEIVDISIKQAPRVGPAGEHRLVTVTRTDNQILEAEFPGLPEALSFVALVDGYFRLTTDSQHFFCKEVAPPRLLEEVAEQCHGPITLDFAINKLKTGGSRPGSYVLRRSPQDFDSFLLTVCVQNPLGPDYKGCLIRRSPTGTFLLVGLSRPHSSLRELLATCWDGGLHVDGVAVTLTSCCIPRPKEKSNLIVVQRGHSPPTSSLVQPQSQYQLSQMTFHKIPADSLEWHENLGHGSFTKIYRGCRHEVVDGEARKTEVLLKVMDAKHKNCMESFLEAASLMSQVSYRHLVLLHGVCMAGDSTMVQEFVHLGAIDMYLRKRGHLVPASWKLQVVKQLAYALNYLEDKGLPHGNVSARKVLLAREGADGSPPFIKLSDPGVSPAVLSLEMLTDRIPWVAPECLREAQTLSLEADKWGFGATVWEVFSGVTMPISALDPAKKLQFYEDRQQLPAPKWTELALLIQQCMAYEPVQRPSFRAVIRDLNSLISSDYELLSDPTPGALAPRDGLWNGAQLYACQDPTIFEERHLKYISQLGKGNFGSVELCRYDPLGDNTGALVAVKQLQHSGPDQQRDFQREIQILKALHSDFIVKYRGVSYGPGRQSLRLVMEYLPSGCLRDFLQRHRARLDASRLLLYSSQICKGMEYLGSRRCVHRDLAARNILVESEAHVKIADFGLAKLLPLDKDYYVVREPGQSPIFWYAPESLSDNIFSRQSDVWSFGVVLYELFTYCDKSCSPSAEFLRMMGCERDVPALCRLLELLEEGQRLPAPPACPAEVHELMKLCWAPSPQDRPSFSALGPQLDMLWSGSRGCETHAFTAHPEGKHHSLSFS

As to `O=C(CC1(n2cc(-c3ccnc4[nH]ccc34)cn2)CCS(=O)(=O)CC1)NCC(F)(F)F` [Example 21, 2-(4-(4-(7H-pyrrolo[2,3-b]pyridin-4-yl)-1H-pyrazol-1-yl)-1,1-dioxotetrahydro-2H-thiopyran-4-yl)-N-(2,2,2-trifluoroethyl)acetamide], the IC50 on JAK2 is greater than 50 nM; at JAK3, greater than 50 nM; on JAK1, 20 to 50 nM.
`CS(=O)(=O)N1CCC(CC(=O)NCC(F)(F)F)(n2cc(-c3c[nH]c4ncccc34)cn2)CC1` [Example 22, 2-(4-(4-(7H-pyrrolo[2,3-b]pyridin-3-yl)-1H-pyrazol-1-yl)-1-(methylsulfonyl)piperidin-4-yl)-N-(2,2,2-trifluoroethyl)acetamide]: the half-maximal inhibitory concentration (IC50) on JAK2, on JAK3 and on JAK1 was greater than 50 nM in each case.
Turning to `CS(=O)(=O)N1CCC(CC(=O)NCC(F)(F)F)(n2cc(-c3ncnc4[nH]ccc34)cn2)CC1` [Example 23, 2-(4-(4-(7H-pyrrolo[2,3-b]pyrimidin-4-yl)-1H-pyrazol-1-yl)-1-(methylsulfonyl)piperidin-4-yl)-N-(2,2,2-trifluoroethyl)acetamide], the concentration for half-maximal inhibition (IC50) is greater than 50 nM on JAK2, greater than 50 nM at JAK3 and 20 to 50 nM on JAK1.
Regarding `CS(=O)(=O)N1CCC(CC(=O)NCC(F)(F)F)(n2cc(-c3ccnc4[nH]ccc34)cn2)CC1` [Example 24, 2-(4-(4-(7H-pyrrolo[2,3-b]pyridin-4-yl)-1H-pyrazol-1-yl)-1-(methylsulfonyl)piperidin-4-yl)-N-(2,2,2-trifluoroethyl)acetamide], the figures for the concentration for half-maximal inhibition (IC50) at JAK2, on JAK3 and on JAK1 were greater than 50 nM, greater than 50 nM and 20 to 50 nM, respectively.
For the compound `O=C(CC1(n2cc(-c3ccnc4[nH]ccc34)cn2)CCCC1)NCC(F)(F)F` [Example 27, 2-(1-(4-(1H-pyrrolo[2,3-b]pyridin-4-yl)-1H-pyrazol-1-yl)cyclopentyl)-N-(2,2,2-trifluoroethyl) acetamide], the IC50 at JAK2 was greater than 50 nM; on JAK3, greater than 50 nM; on JAK1, 20 to 50 nM.
Regarding `CC(C)(CC(=O)NCC(F)(F)F)n1cc(-c2c[nH]c3ncccc23)cn1` [Example 28, 3-(4-(1H-pyrrolo[2,3-b]pyridin-3-yl)-1H-pyrazol-1-yl)-3-methyl-N-(2,2,2-trifluoroethyl)butanamide], the IC50 was 20 to 50 nM on JAK2, greater than 50 nM at JAK3 and greater than 50 nM on JAK1.
Regarding `CC(C)(CC(=O)NCC(F)(F)F)n1cc(-c2ncnc3[nH]ccc23)cn1` [Example 29], the results for the 50% inhibitory concentration (IC50) on JAK2, at JAK3 and at JAK1 were 20 to 50 nM, less than 20 nM and greater than 50 nM, respectively.
The matching figures for `O=C(NCC(F)(F)F)C1(Nc2ccnc(-c3c[nH]c4ncccc34)n2)CN(S(=O)(=O)C2CC2)C1` [Example 33, 3-((2-(1H-pyrrolo[2,3-b]pyridin-3-yl)pyrimidin-4-yl)amino)-1-(cyclopropylsulfonyl)-N-(2,2,2-trifluoroethyl)azetidin-3-carboxamide]: greater than 50 nM, 20 to 50 nM and greater than 50 nM.
As for `O=C(NCC(F)(F)F)C1(Nc2nc(-c3c[nH]c4ncccc34)ncc2F)CN(S(=O)(=O)C2CC2)C1` [Example 36], the 50% inhibitory concentration (IC50) at JAK2 was greater than 50 nM; on JAK3 it was 20 to 50 nM; at JAK1, greater than 50 nM.
`CS(=O)(=O)N1CCC(Nc2ccnc(-c3c[nH]c4ncccc34)n2)(C(=O)NCC(F)(F)F)CC1` [Example 37, 4-((2-(1H-pyrrolo[2,3-b]pyridin-3-yl)pyrimidin-4-yl)amino)-1-(methylsulfonyl)-N-(2,2,2-trifluoroethyl)piperidin-4-carboxamide]: the half-inhibitory concentration (IC50) is greater than 50 nM on JAK2, 20 to 50 nM at JAK3 and greater than 50 nM on JAK1.
As for `O=C(NCC(F)(F)F)C1(Nc2ccnc(-c3c[nH]c4ncccc34)n2)CCN(S(=O)(=O)C2CC2)CC1` [Example 39, 4-((2-(1H-pyrrolo[2,3-b]pyridin-3-yl)pyrimidin-4-yl)amino)-1-(cyclopropylsulfonyl)-N-(2,2,2-trifluoroethyl)piperidin-4-carboxamide], the IC50 at JAK2 was greater than 50 nM; on JAK3 it was 20 to 50 nM; at JAK1, greater than 50 nM.
With `O=C(NCC(F)(F)F)C1(Nc2nc(-c3c[nH]c4ncccc34)ncc2F)CCN(S(=O)(=O)C2CC2)CC1` [Example 42, 4-((5-fluoro-2-(1H-pyrrolo[2,3-b]pyridin-3-yl)pyrimidin-4-yl)amino)-1-(cyclopropylsulfonyl)-N-(2,2,2-trifluoroethyl)piperidin-4-carboxamide], the figures for the 50% inhibitory concentration (IC50) at JAK2, at JAK3 and at JAK1 were 20 to 50 nM, 20 to 50 nM and greater than 50 nM, respectively.
Consider `CCS(=O)(=O)N1CC(C#N)(Nc2ccnc(-c3c[nH]c4ncccc34)n2)C1` [Example 45, 3-((2-(1H-pyrrolo[2,3-b]pyridin-3-yl)pyrimidin-4-yl)amino)-1-(ethylsulfonyl) azetidine-3-carbonitrile], for which the IC50 on JAK2 is 20 to 50 nM; at JAK3, 20 to 50 nM; at JAK1, greater than 50 nM.
In the case of `CCS(=O)(=O)N1CC(C#N)(Nc2ccnc(-c3ncnc4[nH]ccc34)n2)C1` [Example 46, 3-((2-(7H-pyrrolo[2,3-d]pyrimidin-4-yl)pyrimidin-4-yl)amino)-1-(ethylsulfonyl)azetidine-3-carbonitrile], the concentration for half-maximal inhibition (IC50) at JAK2, on JAK3 and on JAK1 was greater than 50 nM throughout.
With `CS(=O)(=O)N1CC(C#N)(Nc2ccnc(-c3c[nH]c4ncccc34)n2)C1` [Example 48, 3-((2-(1H-pyrrolo[2,3-b]pyridin-3-yl)pyrimidin-4-yl)amino)-1-(methylsulfonyl) azetidine-3-carbonitrile], the half-maximal inhibitory concentration (IC50) on JAK2, at JAK3 and on JAK1 was greater than 50 nM each time.
`CS(=O)(=O)N1CC(C#N)(Nc2ccnc(-c3ncnc4[nH]ccc34)n2)C1` [Example 49, 3-((2-(7H-pyrrolo[2,3-d]pyrimidin-4-yl)pyrimidin-4-yl)amino)-1-(methylsulfonyl) azetidine-3-carbonitrile]: the figures for the half-inhibitory concentration (IC50) at JAK2, on JAK3 and at JAK1 were greater than 50 nM, 20 to 50 nM and greater than 50 nM, respectively.
For `CS(=O)(=O)N1CC(C#N)(Nc2ccnc(-c3ccnc4[nH]ccc34)n2)C1` [Example 50, 3-((2-(1H-pyrrolo[2,3-b]pyridin-4-yl)pyrimidin-4-yl)amino)-1-(methylsulfonyl) azetidine-3-carbonitrile], the IC50 on JAK2, at JAK3 and at JAK1 was greater than 50 nM in each case.
On to `N#CC1(Nc2ccnc(-c3c[nH]c4ncccc34)n2)CCS(=O)(=O)CC1` [Example 51, 4-((2-(1H-pyrrolo[2,3-b]pyridin-3-yl)pyrimidin-4-yl)amino)tetrahydro-2H-thiopyran-4-carbonitrile 1,1-dioxide], for which the IC50 at JAK2 was greater than 50 nM; at JAK3, 20 to 50 nM; at JAK1 it was greater than 50 nM.
`N#CC1(Nc2ccnc(-c3ncnc4[nH]ccc34)n2)CCS(=O)(=O)CC1` [Example 52, 4-((2-(7H-pyrrolo[2,3-d]pyrimidin-4-yl)pyrimidin-4-yl)amino)tetrahydro-2H-thiopyran-4-carbonitrile 1,1-dioxide]: the 50% inhibitory concentration (IC50) at JAK2, on JAK3 and on JAK1 was greater than 50 nM in each case.
Turning to `N#CC1(Nc2ccnc(-c3ccnc4[nH]ccc34)n2)CCS(=O)(=O)CC1` [Example 53, 4-((2-(1H-pyrrolo[2,3-b]pyridin-4-yl)pyrimidin-4-yl)amino)tetrahydro-2H-thiopyran-4-carbo nitrile 1,1-dioxide], the results for the half-inhibitory concentration (IC50) on JAK2, at JAK3 and on JAK1 were greater than 50 nM, 20 to 50 nM and greater than 50 nM, respectively.
In the case of `N#CC1(Nc2ccnc(-c3ccnc4[nH]ccc34)n2)CCC1` [Example 56, 1-((2-(1H-pyrrolo[2,3-b]pyridin-4-yl)pyrimidin-4-yl)amino)cyclobutanecarbonitrile], the IC50 at JAK2, on JAK3 and on JAK1 was greater than 50 nM each time.
Regarding `N#CC1(Nc2ccnc(-c3c[nH]c4ncccc34)n2)CCCC1` [Example 57, 1-((2-(1H-pyrrolo[2,3-b]pyridin-3-yl)pyrimidin-4-yl)amino)cyclopentanecarbonitrile], the results for the concentration for half-maximal inhibition (IC50) at JAK2, at JAK3 and at JAK1 were greater than 50 nM, 20 to 50 nM and greater than 50 nM, respectively.
In the case of `N#CC1(Nc2ccnc(-c3ncnc4[nH]ccc34)n2)CCCC1` [Example 58, 1-((2-(7H-pyrrolo[2,3-d]pyrimidin-4-yl)pyrimidin-4-yl)amino)cyclopentanecarbonitrile], the IC50 on JAK2, at JAK3 and on JAK1 was greater than 50 nM each time.
On to `N#CC1(Nc2ccnc(-c3ccnc4[nH]ccc34)n2)CCCC1` [Example 59, 1-((2-(1H-pyrrolo[2,3-b]pyridin-4-yl)pyrimidin-4-yl)amino)cyclopentanecarbonitrile], for which the IC50 is greater than 50 nM at JAK2, 20 to 50 nM at JAK3 and greater than 50 nM at JAK1.
As to `CC[C@](C)(C#N)Nc1ccnc(-c2c[nH]c3ncccc23)n1` [Example 60], the IC50 at JAK2 was greater than 50 nM; on JAK3, 20 to 50 nM; on JAK1, greater than 50 nM.
Consider `CC[C@](C)(C#N)Nc1ccnc(-c2ncnc3[nH]ccc23)n1` [Example 61], for which the concentration for half-maximal inhibition (IC50) at JAK2, on JAK3 and at JAK1 was greater than 50 nM throughout.
